This is an account of results in paper PMC6163981, “Novel and Selective Rhipicephalus microplus Triosephosphate Isomerase Inhibitors with Acaricidal Activity” (Veterinary Sciences, 2018).

Where “and” joins values, the source holds several entries; their conditions need not be identical. Identical values can stand only once. Entries after “also recorded” stand apart in the source; their conditions may differ. Like-named read-outs stand apart in the source and are kept apart here.

The target of data set [1] is RmTIM (TIM from R. microplus) (Rhipicephalus microplus, UniProt A8B3A8). Nature of the data set: biochemical.
Chain of RmTIM (TIM from R. microplus) (A8B3A8 1-249): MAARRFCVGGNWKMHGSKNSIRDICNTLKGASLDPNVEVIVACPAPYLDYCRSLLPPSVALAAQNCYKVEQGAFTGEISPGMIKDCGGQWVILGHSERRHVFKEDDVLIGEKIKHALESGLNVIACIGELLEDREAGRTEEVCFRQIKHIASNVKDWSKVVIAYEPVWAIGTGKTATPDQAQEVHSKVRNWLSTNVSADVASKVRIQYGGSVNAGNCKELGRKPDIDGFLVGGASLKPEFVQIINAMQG
Data set [2] has as its target Rabbit TIM (RbTIM) (Oryctolagus cuniculus, UniProt P00939). Nature of the data set: Rabbit TIM inhibition (selectivity). The class given is biochemical.
Data set [3] has as its system BME26 embryonic cells. Nature of the data set: MTT viability assay on BME26 embryonic cells. The class given is cell-based, Rhipicephalus microplus. The note with it: for IC50 / viability at 100 µM: Rhipicephalus microplus, 24 h, BME26, MTT; for IC50: read-out: IC50 in BME26 cells (In vitro anti-R. microplus); for viability at 100 µM: read-out: cell viability at 100 µM.

Data set [4] concerns mice (strain B6D2F1). Particulars: male, B6D2F1, mouse, in vivo.
Data set [5] addresses T1, Homo sapiens TIM (HsTIM, HmTIM [sic] in Table 1) (Homo sapiens, UniProt P60174).
T1 construct: made in house; host or cells: E. coli
Nature of the data set: Human TIM inhibition (selectivity). The class given is biochemical.

The subject of data set [6] is mammalian TIMs (rabbit and human). Nature of the data set: Mammalian TIM inhibition (rabbit and human, summarised). The class given is biochemical. The note with it: 100 µM.
Data set [7] relates to mice. The note with it: cited from earlier work.
For data set [8], the system named is BME26 embryonic cells. Further details: method as in PMID 24956999, PMID 22036897. The note with it: widely used acaricide, comparison; cited from earlier work.
Data set [9] deals with Trypanosoma cruzi TIM (TcTIM). Particulars: previously obtained; cited from earlier work.
On the set-up of data set [10]: method as in PMID 22803666. The note with it: previous work; cited from earlier work.

Broadly, the IC50 is the concentration that inhibits the measured activity by half. The inhibition is how much of the control response was suppressed. The low end stands for a response near the control, the high end for a response far below the control. What is called viability is a read-out of living cells in per cent, often relative to untreated cells.

T1 sequence (P60174 whole entry): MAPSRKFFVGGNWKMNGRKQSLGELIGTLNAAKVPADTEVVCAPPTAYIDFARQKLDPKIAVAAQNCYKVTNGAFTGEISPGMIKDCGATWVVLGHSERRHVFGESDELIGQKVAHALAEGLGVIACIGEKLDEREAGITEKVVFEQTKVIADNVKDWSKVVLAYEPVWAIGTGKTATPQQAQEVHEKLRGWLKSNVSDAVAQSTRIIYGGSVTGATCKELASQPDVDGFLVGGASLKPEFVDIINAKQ
Chain of Rabbit TIM (RbTIM) (P00939 2-249 limits assumed): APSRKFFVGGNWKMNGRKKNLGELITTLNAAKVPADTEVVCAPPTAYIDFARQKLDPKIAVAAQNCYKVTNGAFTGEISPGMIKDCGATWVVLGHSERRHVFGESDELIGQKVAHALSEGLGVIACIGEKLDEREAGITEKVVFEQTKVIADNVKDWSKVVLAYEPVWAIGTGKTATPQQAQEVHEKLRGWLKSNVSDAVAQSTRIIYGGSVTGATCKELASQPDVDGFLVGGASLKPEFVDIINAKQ

With `Cc1c(C=O)no[n+]1[O-]` [Compound 136], the IC50 in [1] (read-out: IC50 (µM) RmTIM) was about 100 µM.
On to `Cc1ccc(/C=C/C=N/N2CCN(C/C=C/c3ccccc3)CC2)o1` [Compound 222], for which, in data set [1] (read-out: IC50 (µM) RmTIM), the IC50 lay in the range of 50 to 100 µM.
Regarding `CC1(C)[N+]([O-])=c2ccc(/C=C/c3ccccc3)cc2=[N+]1[O-]` [Compound 39], the half-inhibitory concentration (IC50) in data set [1] (read-out: IC50 (µM) RmTIM) was in the range of 50 to 100 µM.
As to `O=S(=O)(NCCc1ccccc1)NCCc1ccccc1` [Compound 62], the IC50 in data set [1] (IC50 (µM) RmTIM) lay within 50 to 100 µM.
Turning to `O=C1C(=Cc2ccc([N+](=O)[O-])cc2)C(=O)N(Cc2ccccc2)S(=O)(=O)N1Cc1ccccc1` [Compound 50], the inhibition at 100 µM in data set [2] and in data set [5] was 0% each time. The IC50 is 71 ± 8 µM in [3]; ~50 µM and 50 µM in data set [1] (read-out: IC50 (µM) RmTIM). Further, the viability at 100 µM in data set [3] (100 µM) amounted to 42%. In addition, the “Toxicology: LD50” value in data set [4] is on record as 3 mmol/kg body weight in mice. Besides, in data set [6], the “Mammalian Triosephosphate isomerase inhibition” value was “did not affect”.
With `O=C(N/N=C/c1c(-c2ccccc2)no[n+]1[O-])c1cnn(-c2ccccc2)c1` [Compound 134], the IC50 in data set [1] (read-out: IC50 (µM) RmTIM) was about 100 µM.
As to `Cc1c(CNc2ccc3ccccc3c2)no[n+]1[O-]` [Compound 146], the IC50 in data set [1] (read-out: IC50 (µM) RmTIM) was about 100 µM.
For the compound `N#Cc1nn(-c2c(Cl)cc(C(F)(F)F)cc2Cl)c(N)c1[S+]([O-])C(F)(F)F` (centres unmarked) [fipronil], in data set [7], the “acute oral LD50” value was 91 mg/kg.
With `O=[N+]([O-])c1ccc(/C=C/C=N/NC(=S)Nc2ccccc2)o1` [Compound 99], in data set [1] (read-out: IC50 (µM) RmTIM), the IC50 is about 100 µM.
Turning to `O=C1C(=Cc2ccc([N+](=O)[O-])o2)C(=O)N(Cc2ccccc2)S(=O)(=O)N1Cc1ccccc1` [Compound 52], the IC50 in [1] (read-out: IC50 (µM) RmTIM) is 50 to 100 µM.
Take `Clc1ccc(-c2csc(N/N=C/C=C/c3ccco3)n2)cc1` [Compound 81]: the IC50 in [1] (read-out: IC50 (µM) RmTIM) is 50 to 100 µM.
ivermectin: the IC50 in data set [8] is 3000 nM.
Turning to `C=CCn1c(-c2ccc(OC)cc2)cs/c1=N/N=C/c1ccc([N+](=O)[O-])s1` [Compound 70], in data set [1] (read-out: IC50 (µM) RmTIM), the IC50 was about 100 µM.
Consider `C=CCNC(=S)N/N=C/c1ccc2c(c1)[n+]([O-])c(C)c(C)[n+]2[O-]` [Compound 179], for which the IC50 in data set [1] (read-out: IC50 (µM) RmTIM) is about 100 µM.
For `Cc1ccc(-c2nsc(=O)[nH]2)cc1` [Compound 161], the IC50 in data set [9] was 4 µM; in [1] (read-out: IC50 (µM) RmTIM), 25 ± 3 µM. The inhibition at 100 µM in data set [2] was determined as 0%; in [5], 28%. The “effect on BME26 cells” value in data set [3] (MTT, 100 µM) was “did not have any effect; also recorded: no activity”. In addition, in data set [3] (100 µM), the viability at 100 µM was determined as 100%. Besides, in data set [10], the “penetration of biological membranes” value is “cannot penetrate biological membranes”. Further, the “% Inhibition at 100 µM HmTIM” value in data set [5] (100 µM) is reported as “slight inhibitory activity”.
Consider `O=C(N/N=C/C=C/c1ccc([N+](=O)[O-])o1)Nc1ccc2ccccc2c1` [Compound 98], for which the inhibition at 100 µM worked out at 21% in data set [2] and 14% in [5]. For the same compound, the IC50 is 67 ± 4 µM in data set [3]; ~50 µM and 50 µM in data set [1] (read-out: IC50 (µM) RmTIM). Further, in data set [3] (100 µM), the viability at 100 µM came to 40%. Besides, the “Toxicology: LD50” value in data set [4] was 3 mmol/kg body weight in mice. The “Mammalian Triosephosphate isomerase inhibition” value in [6] is given as “did not affect”.
